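Dose response: 5 concentrations. Exposure: 48 h. Format: 96-well plates. Endpoint: linear interpolation; highest concentration if not reached. At the TGI there is no net growth.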
Columns and labels:
Assay in all cases: growth of human tumour cells (NCI), 48 h
[1] = test system: SW-620 colon
[2] = test system: TK-10 renal
[3] = test system: NCI-H226 lung
[4] = test system: NCI-H522 lung
[5] = test system: A549 NSCLC
[6] = test system: MDA-MB-435
[7] = test system: CAKI-1 renal
[8] = test system: IGROV1 ovarian
[9] = test system: 786-0 renal
[10] = test system: RXF 393 renal
[11] = test system: MOLT-4 leukemia
[12] = test system: HL-60(TB) leukemia
[13] = test system: HOP-62 NSCLC
[14] = test system: LOX IMVI melanoma
[15] = test system: KM12 colon
[16] = test system: OVCAR-8 ovarian
[17] = test system: NCI/ADR-RES ovarian
[18] = test system: HT29 colon
[19] = test system: SNB-19 CNS
[20] = test system: SF-268 CNS
[21] = test system: M14 melanoma
[22] = test system: HOP-92 NSCLC
[23] = test system: MCF7 breast
[24] = test system: MDA-MB-231 breast
[25] = test system: OVCAR-3 ovarian
[26] = test system: UACC-257 melanoma
[27] = test system: ACHN renal
[28] = test system: SK-MEL-28 melanoma
[29] = test system: CCRF-CEM leukemia
[30] = test system: OVCAR-4 ovarian
[31] = test system: MDA-N
[32] = test system: SN12C renal
[33] = test system: SNB-75 CNS
[34] = test system: EKVX NSCLC
[35] = test system: HS 578T breast
[36] = test system: T-47D breast
[37] = test system: SR leukemia
[38] = test system: DU-145 prostate
[39] = test system: NCI-H23 lung
[40] = test system: OVCAR-5 ovarian
[41] = test system: K-562 leukemia
[42] = test system: RPMI-8226 leukemia
[43] = test system: SK-OV-3 ovarian
[44] = test system: HCT-116 colon
[45] = test system: A498 renal
[46] = test system: HCC-2998 colon
[47] = test system: MALME-3M melanoma
[48] = test system: COLO 205 colon
[49] = test system: NCI-H460 lung
[50] = test system: UACC-62 melanoma
[51] = test system: PC-3 prostate
[52] = test system: SK-MEL-5 melanoma
[53] = test system: SF-295 CNS
[54] = test system: SF-539 CNS
[55] = test system: UO-31 renal
[56] = test system: BT-549 breast
[57] = test system: HCT-15 colon
[58] = test system: SK-MEL-2 melanoma
[59] = test system: U251 CNS

`C/C(=C/CNc1ncnc2c1ncn2CCC(=O)O)CO` showed a TGI [1] of over 100 µM, a TGI [2] of over 100 µM and a TGI [3] of over 100 µM. For the same compound, the TGI [4] was over 100 µM, the TGI [5] was over 100 µM and the TGI [6] was over 100 µM. The TGI [7] was over 100 µM, the TGI [8] was over 100 µM and the TGI [9] was over 100 µM. For the same compound, the TGI [10] was over 100 µM, the TGI [11] was over 100 µM and the TGI [12] was over 100 µM. For the same compound, the TGI [13] was over 100 µM, the TGI [14] was over 100 µM and the TGI [15] was over 100 µM. The TGI [16] was over 100 µM, the TGI [17] was over 100 µM and the TGI [18] was over 100 µM. For the same compound, the TGI [19] was over 100 µM, the TGI [20] was over 100 µM and the TGI [21] was over 100 µM. For the same compound, the TGI [22] was over 100 µM, the TGI [23] was over 100 µM and the TGI [24] was over 100 µM. The TGI [25] was over 100 µM, the TGI [26] was over 100 µM and the TGI [27] was over 100 µM. The TGI [28] was over 100 µM, the TGI [29] was over 100 µM and the TGI [30] was over 100 µM. It also gave a TGI [31] of over 100 µM, a TGI [32] of over 100 µM and a TGI [33] of over 100 µM. It also gave a TGI [34] of over 100 µM, a TGI [35] of over 100 µM and a TGI [36] of over 100 µM. It also gave a TGI [37] of over 100 µM, a TGI [38] of over 100 µM and a TGI [39] of over 100 µM. For the same compound, the TGI [40] was over 100 µM, the TGI [41] was over 100 µM and the TGI [42] was over 100 µM. For the same compound, the TGI [43] was over 100 µM, the TGI [44] was over 100 µM and the TGI [45] was over 100 µM. It also gave a TGI [46] of over 100 µM, a TGI [47] of over 100 µM and a TGI [48] of over 100 µM. For the same compound, the TGI [49] was over 100 µM, the TGI [50] was over 100 µM and the TGI [51] was over 100 µM. It also gave a TGI [52] of over 100 µM, a TGI [53] of over 100 µM and a TGI [54] of over 100 µM. The TGI [55] was over 100 µM.
Work on `CC(C)N(CCCNc1c2ccccc2nc2cccc([N+](=O)[O-])c12)C(C)C` yielded a TGI [1] of under 0.0397 µM, a TGI [3] of 0.325 µM and a TGI [5] of 0.0473 µM. The TGI [6] was under 0.018 µM, the TGI [7] was 0.593 µM and the TGI [9] was 0.155 µM. The TGI [10] was 0.0377 µM, the TGI [14] was 0.0637 µM and the TGI [16] was under 0.0467 µM. The TGI [17] was 3.68 µM, the TGI [18] was 0.0935 µM and the TGI [19] was 0.121 µM. The TGI [21] was under 0.01 µM, the TGI [22] was under 0.01 µM and the TGI [23] was 13.2 µM. For the same compound, the TGI [24] was under 0.01 µM, the TGI [26] was under 0.0508 µM and the TGI [56] was under 0.0442 µM. The TGI [27] was under 0.0301 µM, the TGI [28] was under 0.01 µM and the TGI [29] was 0.0806 µM. The TGI [57] was 0.012 µM, the TGI [30] was 0.103 µM and the TGI [31] was under 0.01 µM. The TGI [58] was 0.24 µM, the TGI [33] was 0.149 µM and the TGI [37] was 11.8 µM. It also gave a TGI [38] of under 0.01 µM, a TGI [39] of under 0.0183 µM and a TGI [41] of 62.3 µM. It also gave a TGI [42] of under 0.0192 µM, a TGI [44] of 0.391 µM and a TGI [45] of 0.0433 µM. The TGI [46] was under 0.01 µM, the TGI [48] was under 0.015 µM and the TGI [49] was under 0.0445 µM. The TGI [51] was 0.527 µM, the TGI [52] was under 0.0156 µM and the TGI [53] was under 0.0457 µM. For the same compound, the TGI [59] was under 0.0365 µM and the TGI [54] was under 0.0437 µM.
For `CCOC(=O)CSc1[nH]c2nc(C)nc(Cl)c2c1C#N`, the TGI [1] was over 10 µM, the TGI [2] was over 10 µM and the TGI [5] was over 10 µM. It also gave a TGI [6] of over 10 µM, a TGI [7] of over 10 µM and a TGI [8] of over 10 µM. It also gave a TGI [9] of over 10 µM, a TGI [10] of over 10 µM and a TGI [11] of over 10 µM. The TGI [12] was over 10 µM, the TGI [13] was over 10 µM and the TGI [14] was over 10 µM. For the same compound, the TGI [15] was over 10 µM, the TGI [16] was over 10 µM and the TGI [18] was over 10 µM. For the same compound, the TGI [20] was over 10 µM, the TGI [21] was over 10 µM and the TGI [22] was over 10 µM. The TGI [23] was over 10 µM, the TGI [24] was over 10 µM and the TGI [26] was over 10 µM. The TGI [28] was over 10 µM, the TGI [29] was over 10 µM and the TGI [57] was over 10 µM. It also gave a TGI [30] of over 10 µM, a TGI [31] of over 10 µM and a TGI [32] of over 10 µM. The TGI [33] was over 10 µM, the TGI [34] was over 10 µM and the TGI [36] was over 10 µM. It also gave a TGI [37] of over 10 µM, a TGI [38] of over 10 µM and a TGI [39] of over 10 µM. For the same compound, the TGI [41] was over 10 µM, the TGI [42] was over 10 µM and the TGI [43] was over 10 µM. For the same compound, the TGI [46] was over 10 µM, the TGI [47] was over 10 µM and the TGI [48] was over 10 µM. It also gave a TGI [50] of over 10 µM, a TGI [51] of over 10 µM and a TGI [52] of over 10 µM. For the same compound, the TGI [53] was over 10 µM.
`CC(/C=C/C=C/C=C/C=C/C=C/C(O)=C1/C(=O)C(CCC(=O)O)N(C)C1=O)=C\C(C)C(OC1CC(O)C(O)C(C)O1)C(C)C` (stereo not given) showed a TGI [1] of 14.6 µM, a TGI [2] of 7.92 µM and a TGI [3] of 11.8 µM. The TGI [4] was 7.35 µM, the TGI [5] was 10.5 µM and the TGI [6] was 7.93 µM. For the same compound, the TGI [7] was 12.6 µM, the TGI [8] was 4.48 µM and the TGI [9] was 11.1 µM. It also gave a TGI [10] of 11.2 µM, a TGI [11] of 7.08 µM and a TGI [12] of 6.07 µM. For the same compound, the TGI [13] was 3.68 µM, the TGI [14] was 11.5 µM and the TGI [15] was 3.73 µM. The TGI [16] was 15.1 µM, the TGI [17] was 50.2 µM and the TGI [18] was 14 µM. It also gave a TGI [19] of 9.44 µM, a TGI [20] of 14 µM and a TGI [21] of 15.2 µM. The TGI [22] was 8.66 µM, the TGI [23] was 33.6 µM and the TGI [24] was 12.2 µM. It also gave a TGI [25] of 5.12 µM, a TGI [26] of 6.66 µM and a TGI [56] of 7.1 µM. It also gave a TGI [27] of 10.4 µM, a TGI [28] of 10.1 µM and a TGI [29] of 8.47 µM. For the same compound, the TGI [57] was 19.4 µM, the TGI [30] was 40.1 µM and the TGI [31] was 12.7 µM. The TGI [32] was 13.6 µM, the TGI [58] was 12.9 µM and the TGI [33] was 22.8 µM. The TGI [34] was 12.4 µM, the TGI [35] was 32.3 µM and the TGI [37] was 40.2 µM. For the same compound, the TGI [38] was 12.4 µM, the TGI [39] was 9.75 µM and the TGI [40] was 7.83 µM. For the same compound, the TGI [41] was 15.6 µM, the TGI [42] was 9.25 µM and the TGI [44] was 7.15 µM. It also gave a TGI [45] of 10.7 µM, a TGI [46] of 7.53 µM and a TGI [47] of 8.4 µM. For the same compound, the TGI [48] was 4.48 µM, the TGI [49] was 10.1 µM and the TGI [51] was 16.6 µM. For the same compound, the TGI [52] was 3.85 µM, the TGI [53] was 14.8 µM and the TGI [59] was 11.7 µM. It also gave a TGI [54] of 6.3 µM and a TGI [55] of 13.5 µM.

— PubChem BioAssay (NCI)
